The target of assay [1] is T1, CD206 CRD4 (Homo sapiens, UniProt P22897).
T1 construct: Carbohydrate recognition domain 4 of CD206; made in house
T1 sequence (P22897 655-778 limits assumed): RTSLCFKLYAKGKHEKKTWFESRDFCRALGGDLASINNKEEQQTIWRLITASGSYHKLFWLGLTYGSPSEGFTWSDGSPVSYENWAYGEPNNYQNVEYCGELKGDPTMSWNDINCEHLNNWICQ
As to the kind of experiment: NanoDSF thermal shift binding study, CD206 CRD4. The conditions noted are these: for Kd: CD206 CRD4, calculated from EC50 with KD=(1−fuo)×(EC50−[P]/2); for EC50: CD206 CRD4, 12 μM protein, unfolded fraction evaluated at 53 °C, Hill fit, read-out: EC50 (unfolded fraction vs TS concentration). As for the experimental part: (§1) Thermal shift experiments were performed by using a Prometheus NanoDSF instrument (NanoTemper, Munich, Germany). […] Each ligand concentration was measured in triplicate. Samples were subjected to a controlled temperature increase from 20 to 85 °C at a rate of 1.5 °C per minute. Protein unfolding was monitored by measuring the fluorescence emission ratio at 350 and 330 nm. […] Data were analyzed according to the vertical slice method developed by Bai et al. The unfolded fraction was plotted against the ligand concentration, and EC50 values were determined by fitting the data to the Hill equation using GraphPad Prism 8.0.1. K D values were calculated using eq based on the unfolded fraction in the absence of ligand (f uo) and the total protein concentration ([P]). Associated errors were determined according to the standard error propagation rules. KD=(1−fuo)×(EC50−[P]/2) 1 […]
(§2) In this study, NanoDSF was used to investigate the binding affinity of unconjugated monovalent TSs ManN3 and Man3N3, as well as the trivalent TSs (Man)3N3 and (Man3)3N3 for isolated CRDs of CD206 and CD209. Utilization of isolated CRDs instead of the complete tetrameric and octameric receptors allowed an investigation of the affinity without the potential occurrence of avidity effects taking place on the receptor side. […] The observed binding affinities to the isolated CRDs were in the low millimolar range, with all ligands showing stabilizing effects. […] In the solid-phase assay, the biotinylated CRDs were immobilized on streptavidin-coated plates in a defined orientation, likely enhancing the effective presentation of the binding site. In contrast, NanoDSF measurements were conducted with isolated, solubilized monomeric CRDs without surface- or orientation-related effects. Additionally, steric effects and interactions arising from the linker moiety may also impact binding affinity.
3 NanoDSF study for binding of mono- and trivalent TSs ManN3, Man3N3, (Man)3N3, and (Man3)3N3 to the CRDs of CD206 and CD209. (A) Affinity of mono- and trivalent TSs for CRD4 of CD206. (B) Affinity of mono- and trivalent TSs for CRD of CD209. The unfolded fraction of each CRD at different TS concentrations was determined at 53 °C for CD206 and at 63 °C for CD209. The unfolded fraction was plotted against TS concentration, and EC50 values were determined using GraphPad Prism 8.0.1. The respective K D values were calculated from EC50, as described in section , and are given for each case. […]
6 NanoDSF binding study for mono- and trivalent TSs
6.1 Recombinant protein expression and purification.
6.1.1 Carbohydrate recognition domain 4 of CD206
CRD 4 of CD206 was expressed as described previously.50 Briefly, a pT5T expression vector containing CRD4 of CD206 was transformed into competent Escherichia coli (E. coli) BL21 (DE3) cells. The cells were grown in LB medium containing 100 µg/mL ampicillin at 37 °C and 160 rpm until they reached an optical density (OD₆₀₀) of approximately 0.7. Overexpression was induced by adding 0.4 mM Isopropyl-β-D-thiogalactopyranoside (IPTG) for approximately 2.5 hours at 37 °C. Cells were harvested by centrifugation (10.000 × g at 4 °C for 15 minutes) and resuspended in cold buffer A (10 mM Tris-Cl, pH 7.8). Lysis was performed by thoroughly sonicating the cell pellets. Cell debris and inclusion bodies were collected by centrifugation (18,000 × g at 4 °C for 15 minutes), and the supernatant was discarded.
The inclusion bodies were then solubilized in 100 mL of denaturing buffer B (6 M guanidine-HCl, 100 mM Tris-Cl, pH 7.0). After adding 2-mercaptoethanol (10 µL), the suspension was incubated at 4 °C on ice for 30 minutes. Insoluble impurities were removed by centrifugation (18,000 × g at 4 °C for 30 minutes). The supernatant was refolded by three-step dialysis against 2 L of buffer C (0.5 M NaCl, 25 mM Tris-Cl, pH 7.8, 25 mM CaCl₂) at 4 °C overnight. After centrifugation (18,000 × g at 4 °C for […]

Assay [2] addresses T2, CD209 CRD (Homo sapiens, UniProt Q9NNX6).
T2 construct: Carbohydrate recognition domain of CD209; inferred from HisTrap/imidazole purification; made in house
T2 sequence (Q9NNX6 263-378 limits assumed): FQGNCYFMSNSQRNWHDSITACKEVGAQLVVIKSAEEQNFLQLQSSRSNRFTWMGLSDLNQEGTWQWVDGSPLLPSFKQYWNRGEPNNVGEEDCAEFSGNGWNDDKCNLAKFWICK
As to the kind of experiment: NanoDSF thermal shift binding study, CD209 CRD. The conditions noted are these: for Kd: calculated from EC50 with KD=(1−fuo)×(EC50−[P]/2); for EC50: 12 μM protein, unfolded fraction evaluated at 63 °C, Hill fit, read-out: EC50 (unfolded fraction vs TS concentration). How it is done:
as §1, §2
3 NanoDSF study for binding of mono- and trivalent TSs ManN3, Man3N3, (Man)3N3, and (Man3)3N3 to the CRDs of CD206 and CD209. (A) Affinity of mono- and trivalent TSs for CRD4 of CD206. (B) Affinity of mono- and trivalent TSs for CRD of CD209. The unfolded fraction of each CRD at different TS concentrations was determined at 53 °C for CD206 and at 63 °C for CD209. The unfolded fraction was plotted against TS concentration, and EC50 values were determined using GraphPad Prism 8.0.1. The respective K D values were calculated from EC50, as described in section , and are given for each case.
D (150 mM NaCl, 25 mM Tris-Cl, pH 7.8, 25 mM CaCl₂), the bound protein was eluted with buffer E (150 mM NaCl, 25 mM Tris-Cl, pH 7.8, 2.5 mM EDTA).
6.1.2 Carbohydrate recognition domain of CD209
The recombinant CRD of CD209 was expressed as described previously.55 Briefly, a pET-30 expression vector containing the CRD of CD209 was transformed into competent Escherichia coli (E. coli) BL21 (DE3) cells. The cells were grown in LB medium containing 100 µg/mL kanamycin at 37 °C and 160 rpm until they reached an optical density (OD₆₀₀) of approximately 0.7. Overexpression was induced by adding 0.5 mM IPTG for approximately 3 hours at 37 °C. Cells were harvested by centrifugation (10.000 × g at 4 °C for 15 minutes) and resuspended in cold buffer A (25 mM Tris-Cl, 150 mM NaCl, pH 8) supplemented with lysozyme, one tablet of protease inhibitor (cOmplete ™, Roche), and DNase I. Lysis was performed by thoroughly sonicating the resuspended cell pellets. Cell debris and inclusion bodies were collected by centrifugation (20,000 × g at 4 °C for 1 hour), and the supernatant was discarded. The inclusion bodies were resuspended in buffer A supplemented with 2 M urea and 1% Triton X-100. After a second centrifugation step, the inclusion bodies were solubilized in buffer A supplemented with 6 M guanidine hydrochloride and 0.01 % 2-mercaptoethanol. Insoluble impurities were removed by centrifugation (20.000 × g at 4 °C for 1 hour). The resulting supernatant was dialyzed […]

Assay [3] relates to tetrameric extracellular domains (ECDs) of CD209. On the set-up: method as in Li et al. Conditions: TS presented in a trivalent manner, SPR, CD209 ECD; ref Li et al.; read-out: IC50 (binding affinity), trivalent presentation; cited from earlier work.

As usually defined, the Kd is the free concentration of one partner at which half of the binding sites on the other are occupied at equilibrium, for simple one-to-one binding. Regarding `[N-]=[N+]=NCCOCCOCCOCCC(=O)NC(COCCC(=O)NCCOCCOCCOCCn1cc(CO[C@H]2O[C@H](CO[C@H]3O[C@H](CO)[C@@H](O)[C@H](O)[C@@H]3O)[C@@H](O)[C@H](O[C@H]3O[C@H](CO)[C@@H](O)[C@H](O)[C@@H]3O)[C@@H]2O)nn1)(COCCC(=O)NCCOCCOCCOCCn1cc(CO[C@H]2O[C@H](CO[C@H]3O[C@H](CO)[C@@H](O)[C@H](O)[C@@H]3O)[C@@H](O)[C@H](O[C@H]3O[C@H](CO)[C@@H](O)[C@H](O)[C@@H]3O)[C@@H]2O)nn1)COCCC(=O)NCCOCCOCCOCCn1cc(CO[C@H]2O[C@H](CO[C@H]3O[C@H](CO)[C@@H](O)[C@H](O)[C@@H]3O)[C@@H](O)[C@H](O[C@H]3O[C@H](CO)[C@@H](O)[C@H](O)[C@@H]3O)[C@@H]2O)nn1` [(Man3)3N3], the figures for the Kd in assay [1] and in assay [2] were 3.1 mM and above 26.6 mM, respectively.

On to `[N-]=[N+]=NCCOCCOCCOCCC(=O)NC(COCCC(=O)NCCOCCOCCOCCn1cc(CO[C@H]2O[C@H](CO)[C@@H](O)[C@H](O)[C@@H]2O)nn1)(COCCC(=O)NCCOCCOCCOCCn1cc(CO[C@H]2O[C@H](CO)[C@@H](O)[C@H](O)[C@@H]2O)nn1)COCCC(=O)NCCOCCOCCOCCn1cc(CO[C@H]2O[C@H](CO)[C@@H](O)[C@H](O)[C@@H]2O)nn1` [(Man)3N3], for which the Kd is 6.8 mM in assay [1] and 10.3 mM in assay [2].

As to `[N-]=[N+]=NCCOCCOCCOCCn1cc(CO[C@H]2O[C@H](CO[C@H]3O[C@H](CO)[C@@H](O)[C@H](O)[C@@H]3O)[C@@H](O)[C@H](O[C@H]3O[C@H](CO)[C@@H](O)[C@H](O)[C@@H]3O)[C@@H]2O)nn1` [Man3N3], in assay [1], the EC50 turned out to be 14.9 ± 0.97 mM and the Kd is 6.9 mM. Moreover, in assay [2], the EC50 stood at 16.4 ± 1.9 mM and the dissociation constant (Kd) is 7.2 mM.

On to `[N-]=[N+]=NCCOCCOCCOCCn1cc(CO[C@H]2O[C@H](CO)[C@@H](O)[C@H](O)[C@@H]2O)nn1` [ManN3], for which the EC50 was 3.1 ± 0.6 mM in assay [1] and above 79.8 mM in assay [2]. Also, the Kd is 1.3 mM in assay [1] and above 36.3 mM in assay [2].

The IC50 is the concentration at which inhibition is half-maximal. trimannose: the IC50 in assay [3] is 0.0024 mM.

Source of the values: PMC12606641, “Surface Density of Mono- and Trivalent High-Mannan-Derived Targeting Structures with Different Affinities Impacts Cellular Uptake of Human Serum Albumin-Derived Nanocarriers” (Biomacromolecules, 2025).
